Where two headings read alike, the source gives them in different places.
Assays:
PC 12 cells [1] = assay: MTT assay after acrolein exposure (MSN study); type: cell-based; conditions: Rattus norvegicus, read-out: MTT activity (absorbance), % of control values
Description: (§1) Exposure to 100 μM acrolein can induce the death of >80% of a population of PC 12 Cells by a few hours, and 100% by 8-12 hours of observation. […] Typically, populations of cells with acrolein-mediated damage show a significant reduction in MTT activity due to the collapse of mitochondria function.

PC 12 cells [2] = assay: LDH release after acrolein exposure (chitosan nanoparticles); type: cell-based; conditions: Rattus norvegicus, 100 μM acrolein, post-treatment with nanoparticles, acrolein row = acrolein alone, read-out: LDH release, % of control values
Description: (§2) In one example, functional tests (MTT and LDH exclusion tests) were used to evaluate the response to different chitosan formulations in PC 12 cells suffering from acrolein exposure. We compared the effectiveness of these formulations using entire cell populations in six different groups: 1) a control group, (2) a 100 μM acrolein-exposed group, (3) a 100 μM acrolein-exposed and Chi-DS nanoparticle—treated group, (4) a 100 μM acrolein-exposed and Chi-DS/Hy nanoparticle—treated group, (5) a 100 μM acrolein-exposed and Chi-TPP nanoparticle—treated group, and (6) a 100 μM acrolein-exposed and Chi-TPP/Hy nanoparticle—treated group. First, we tested whether chitosan nanoparticles were capable of sufficiently reducing acrolein cytotoxicity using the MTT assay. In all experiments, the various types of nanoparticles were added to the cell medium after 15 min following the exposure to acrolein. As a consequence of acrolein exposure, approximately 98% of the cells in culture died within a couple of hours. Acrolein-induced cytotoxicity was expressed as a percentage of MTT activity, which is, as explained above, an indicator of aberrant mitochondria functioning. Thus, MTT activity subsequent to 100 acrolein exposure was decreased to 3.5±2.9% of controls values. […] Even more significant increase was observed after application of hydralazine-entrapped chitosan nanoparticles. […]

PC 12 cells [3] = conditions: 100 μM acrolein, cited from earlier work
[4] = test system: acrolein poisoned cultures; assay: ROS level in acrolein poisoned cultures; type: cell-based; conditions: 100 μM acrolein; acrolein row = acrolein alone; read-out: level of ROS, % of control values
PC 12 cells [5] = assay: MTT assay after acrolein exposure (chitosan nanoparticles); type: cell-based
Description: as §2

PC 12 cells [6] = assay: LDH release assay after acrolein exposure (MSN study); type: cell-based; conditions: Rattus norvegicus, PC-12, 0.25 h; 100 μM acrolein; treatment added with 15 min delay; acrolein row = acrolein alone; read-out: LDH release, % of control values
Description: as §1

PC 12 cells [7] = assay: Live-dead cell assay after acrolein exposure; type: cell-based; conditions: 5 hr, control cells 90±7%
[8] = test system: voltage gated fast potassium channels; conditions: paralyzed persons; cited from earlier work

NNc1nncc2ccccc12 [hydralazine]
activity at 500 µM (PC 12 cells [1]): 53.8 ± 18.6%

C=CC=O [acrolein]
activity at 100 µM (PC 12 cells [1]): 11 ± 10.2% | activity at 100 µM (PC 12 cells [2]): 178 ± 25.4% | death of cell population (PC 12 cells [3]; by 8-12 hours of observation): 100% | death of cell population (PC 12 cells [3]; by a few hours): > 80% | activity at 100 µM [4]: 120 ± 14% | activity at 100 µM (PC 12 cells [5]; Rattus norvegicus, PC-12, 100 μM acrolein, nanoparticles added 15 min after, after 5 hr, acrolein row = acrolein alone, read-out: MTT activity / survival, % of control values): 3.5 ± 2.9% | cells in culture that died (PC 12 cells [5]; acrolein exposure, within a couple of hours): approximately 98% | activity at 100 µM (PC 12 cells [6]): 168 ± 15.4% | cell survival (live-dead cell assay) (PC 12 cells [7]): 30±8%

Nc1ccncc1 [4-Aminopyridine]
share of treated population with clinically meaningful recoveries of function [8]: about 30%

Source: patent US20110052713A1, “REPAIRING DAMAGED NERVOUS SYSTEM TISSUE WITH NANOPARTICLES” (priority 2008, published 2011)
